According to US9084420B2, “Amide derivative, pest control agent containing the amide derivative, and pest controlling method” (Mitsui Chemicals Agro, Inc., priority 2008, dated 2015):

What was measured:
Assay type in all cases: in vivo
Plutella xylostella = test: Pesticidal test against Plutella xylostella (cabbage leaf immersion); conditions: 144 h, 3-stage larvae on treated cabbage leaf, 25° C., after 6 days, read-out: pesticidal rate
Description: (§1) Pesticidal Test Against Plutella xylostella A piece of a cabbage leaf was immersed for 30 seconds in a chemical solution in which a test compound had been diluted at a predetermined concentration, and air-dried, and then put into a 7 cm polyethylene cup having a filter paper laid on the bottom thereof, and 3-stage larvae of Plutella xylostella were released. They were left to stand in a thermostatic chamber at 25° C., and the numbers of the living pests and the dead pests were examined after 6 days. The test was carried out with five larvae per group in two replicates.

Spodoptera litura [1] = test: Pesticidal test against Spodoptera litura (cabbage leaf immersion); conditions: 144 h, 2-stage larvae on treated cabbage leaf, 25° C., after 6 days, read-out: pesticidal rate
Description: as §1, with “Spodoptera litura” for “Plutella xylostella”, “2-stage” for “3-stage”

Spodoptera litura [2] = test: Pesticidal test of penetration migration against Spodoptera litura (radish seedling root immersion); conditions: 72 h, radish seedling root immersed 2 days, leaf fed to 2-stage larvae, 25° C., after 3 days, read-out: pesticidal rate
Description: Pesticidal Test of Penetration Migration against Spodoptera litura A root portion of a radish seedling was immersed for 2 days in a chemical solution in which a test compound had been diluted at a predetermined concentration, then the leaf was cut and put into a 7 cm polyethylene cup having a filter paper laid on the bottom thereof, and 2-stage larvae of Spodoptera litura were released. They were left to stand in a thermostatic chamber at 25° C., and the numbers of the living pests and the dead pests were examined after 3 days. The test was carried out with five larvae per group in two replicates.

Musca domestica = test: Pesticidal test against Musca domestica (petri dish residue); conditions: 24 h, acetone solution dried in petri dish, female adults, 25° C., after 1 day, read-out: pesticidal rate
Description: Pesticidal Test Against Musca domestica
1 ml of an acetone solution in which a test compound had been diluted at a predetermined concentration was added dropwise to a petri dish having a diameter of 9 cm, and air-dried, and then the female adults of Musca domestica were released and the petri dish was capped. They were left to stand in a thermostatic chamber at 25° C., and the numbers of the living pests and the dead pests were examined after 1 day. The test was carried out with […] in two replicates.

Cc1cc(C(F)(C(F)(F)F)C(F)(F)F)cc(C)c1NC(=O)c1cccc(N(CCC(N)=O)C(=O)c2ccccc2)c1F [1-21, 3-(N-(3-amino-3-oxopropyl)benzamide)-N-(2,6-dimethyl-4-(perfluoropropan-2-yl)phenyl)-2-fluorobenzamide]
pest or weed control at 100 ppm (Plutella xylostella): ≥ 70% | pest or weed control at 100 ppm (Spodoptera litura [1]): ≥ 70% | pest or weed control at 1 ppm (Spodoptera litura [2]): ≥ 70%

N#Cc1ccc(C(=O)N(CCC(N)=O)c2cccc(C(=O)Nc3c(Br)cc(C(F)(C(F)(F)F)C(F)(F)F)cc3C(F)(F)F)c2F)cc1 [1-136, 3-(N-(3-amino-3-oxopropyl)-4-cyanobenzamide)-N-(2-bromo-4-(perfluoropropan-2-yl)-6-(trifluoromethyl)phenyl)-2-fluorobenzamide]
pest or weed control at 1000 ppm (Musca domestica): ≥ 70% | pest or weed control at 100 ppm (Plutella xylostella): ≥ 70% | pest or weed control at 100 ppm (Spodoptera litura [1]): ≥ 70% | pest or weed control at 1 ppm (Spodoptera litura [2]): ≥ 70%

NC(=O)CCN(C(=O)c1ccccc1)c1cccc(C(=O)Nc2c(Br)cc(C(F)(C(F)(F)F)C(F)(F)F)cc2Br)c1F [1-163, 3-(N-(3-amino-3-oxopropyl)benzamide)-N-(2,6-dibromo-4-(perfluoropropan-2-yl)phenyl)-2-fluorobenzamide]
pest or weed control at 100 ppm (Plutella xylostella): ≥ 70% | pest or weed control at 100 ppm (Spodoptera litura [1]): ≥ 70% | pest or weed control at 1 ppm (Spodoptera litura [2]): ≥ 70%

NC(=O)CCN(C(=O)c1ccccc1)c1cccc(C(=O)Nc2c(Br)cc(C(F)(C(F)(F)F)C(F)(F)F)cc2C(F)(F)F)c1F [1-171, 3-(N-(3-amino-3-oxopropyl)benzamide)-N-(2-bromo-4-(perfluoropropan-2-yl)-6-(trifluoromethyl)phenyl)-2-fluorobenzamide]
pest or weed control at 100 ppm (Plutella xylostella): ≥ 70% | pest or weed control at 100 ppm (Spodoptera litura [1]): ≥ 70% | pest or weed control at 1 ppm (Spodoptera litura [2]): ≥ 70%

N#Cc1ccc(C(=O)N(CCS(N)(=O)=O)c2cccc(C(=O)Nc3c(Br)cc(C(F)(C(F)(F)F)C(F)(F)F)cc3Br)c2F)cc1 [2-133, 3-(4-cyano-N-(2-sulfamoylethyl)benzamide)-N-(2,6-dibromo-4-(perfluoropropan-2-yl)phenyl)-2-fluorobenzamide]
pest or weed control at 100 ppm (Plutella xylostella): ≥ 70% | pest or weed control at 100 ppm (Spodoptera litura [1]): ≥ 70% | pest or weed control at 1 ppm (Spodoptera litura [2]): ≥ 70%

Cc1cc(C(F)(C(F)(F)F)C(F)(F)F)cc(C)c1NC(=O)c1cccc(N(CCC#N)C(=O)c2ccccc2)c1 [5-8, N-(2-cyanoethyl)-N-(3-(2,6-dimethyl-4-(perfluoropropan-2-yl)phenylcarbamoyl)phenyl)benzamide]
pest or weed control at 1000 ppm (Musca domestica): ≥ 70% | pest or weed control at 100 ppm (Plutella xylostella): ≥ 70% | pest or weed control at 100 ppm (Spodoptera litura [1]): ≥ 70%

N#Cc1cccc(C(=O)N(CCC(=O)NO)c2cccc(C(=O)Nc3c(Br)cc(C(F)(C(F)(F)F)C(F)(F)F)cc3Br)c2F)c1 [5-33, 3-(3-cyano-N-(3-(hydroxyamino)-3-oxopropyl)benzamide)-N-(2,6-dibromo-4-(perfluoropropan-2-yl)phenyl)-2-fluorobenzamide]
pest or weed control at 100 ppm (Plutella xylostella): ≥ 70% | pest or weed control at 100 ppm (Spodoptera litura [1]): ≥ 70% | pest or weed control at 1 ppm (Spodoptera litura [2]): ≥ 70%

CCOC(=O)NC(=O)CCN(C(=O)c1ccc(C#N)cc1)c1cccc(C(=O)Nc2c(Br)cc(C(F)(C(F)(F)F)C(F)(F)F)cc2C(F)(F)F)c1F [5-76, ethyl 3-(N-(3-(2-bromo-4-(perfluorophan-2-yl)-6-(trifluoromethyl)phenylcarbamoyl)-2-fluorophenyl)-4-cyanobenzamide)propanoylcarbamate]
pest or weed control at 1000 ppm (Musca domestica): ≥ 70% | pest or weed control at 100 ppm (Plutella xylostella): ≥ 70% | pest or weed control at 100 ppm (Spodoptera litura [1]): ≥ 70% | pest or weed control at 1 ppm (Spodoptera litura [2]): ≥ 70%

COC(=O)CCN(C(=O)c1ccccc1)c1cccc(C(=O)Nc2c(I)cc(C(F)(C(F)(F)F)C(F)(F)F)cc2C(F)(F)F)c1 [5-80, methyl 3-(N-(3-(2-iodo-4-(perfluoropropan-2-yl)-6-(trifluoromethyl)phenylcarbamoyl)phenyl)benzamide)propanoate]
pest or weed control at 1000 ppm (Musca domestica): ≥ 70% | pest or weed control at 100 ppm (Plutella xylostella): ≥ 70% | pest or weed control at 100 ppm (Spodoptera litura [1]): ≥ 70%

CC(=O)CCN(C(=O)c1ccccc1)c1cccc(C(=O)Nc2c(C)cc(C(F)(C(F)(F)F)C(F)(F)F)cc2C)c1 [5-100, N-(3-(2,6-dimethyl-4-(perfluoropropan-2-yl)phenylcarbamoyl)phenyl)-N-(3-oxobutyl)benzamide]
pest or weed control at 1000 ppm (Musca domestica): ≥ 70% | pest or weed control at 100 ppm (Plutella xylostella): ≥ 70% | pest or weed control at 100 ppm (Spodoptera litura [1]): ≥ 70%

C/C(CCN(C(=O)c1ccccc1)c1cccc(C(=O)Nc2c(C)cc(C(F)(C(F)(F)F)C(F)(F)F)cc2C)c1)=N\O [5-105, N-(3-(2,6-dimethyl-4-(perfluoropropan-2-yl)phenylcarbamoyl)phenyl)-N-(3-(hydroxyimino)butyl)benzamide]
pest or weed control at 1000 ppm (Musca domestica): ≥ 70% | pest or weed control at 100 ppm (Plutella xylostella): ≥ 70% | pest or weed control at 100 ppm (Spodoptera litura [1]): ≥ 70%

Cc1cc(C(F)(C(F)(F)F)C(F)(F)F)cc(C)c1NC(=O)c1cccc(N(CCCC(N)=O)C(=O)c2ccccc2)c1 [6-16, N-(4-amino-4-oxobutyl)-N-(3-(2,6-dimethyl-4-(perfluoropropan-2-yl)phenylcarbamoyl)phenyl)benzamide]
pest or weed control at 1000 ppm (Musca domestica): ≥ 70% | pest or weed control at 100 ppm (Plutella xylostella): ≥ 70% | pest or weed control at 100 ppm (Spodoptera litura [1]): ≥ 70%

Cc1cc(C(F)(C(F)(F)F)C(F)(F)F)cc(C)c1N(C)C(=O)c1cccc(N(CC#N)C(=O)c2ccccc2)c1 [6-18, 3-(N-(cyanomethyl)benzamide)-N-(2,6-dimethyl-4-(perfluoropropan-2-yl)phenyl)-N-methylbenzamide]
pest or weed control at 100 ppm (Plutella xylostella): ≥ 70% | pest or weed control at 100 ppm (Spodoptera litura [1]): ≥ 70%

Cc1cc(C(F)(C(F)(F)F)C(F)(F)F)cc(C)c1NC(=O)c1cccc(N(CCCN)C(=O)c2ccccc2)c1 [6-20, N-(3-aminopropyl)-N-(3-(2,6-dimethyl-4-(perfluoropropan-2-yl)phenylcarbamoyl)phenyl)benzamide]
pest or weed control at 100 ppm (Plutella xylostella): ≥ 70% | pest or weed control at 100 ppm (Spodoptera litura [1]): ≥ 70%

CC(C)(C)OC(=O)C(CN(C(=O)c1cccc(C#N)c1)c1cccc(C(=O)Nc2c(Br)cc(C(F)(C(F)(F)F)C(F)(F)F)cc2Br)c1F)C(=O)OC(C)(C)C [6-44, di-tert-butyl 2-((3-cyano-N-(3-(2,6-dibromo-4-(perfluoropropan-2-yl)phenylcarbamoyl)-2-fluorophenyl)benzamide)methyl)malonate]
pest or weed control at 1000 ppm (Musca domestica): ≥ 70% | pest or weed control at 100 ppm (Plutella xylostella): ≥ 70% | pest or weed control at 100 ppm (Spodoptera litura [1]): ≥ 70%

CNC(=O)NCCCN(C(=O)c1ccccc1)c1cccc(C(=O)Nc2c(C)cc(C(F)(C(F)(F)F)C(F)(F)F)cc2C)c1 [6-49, N-(3-(2,6-dimethyl-4-(perfluoropropan-2-yl)phenylcarbamoyl)phenyl)-N-(3-(3-methylureido)propyl)benzamide]
pest or weed control at 100 ppm (Plutella xylostella): ≥ 70% | pest or weed control at 100 ppm (Spodoptera litura [1]): ≥ 70%

Cc1cc(C(F)(C(F)(F)F)C(F)(F)F)cc(C)c1NC(=O)c1cccc(N(CC=O)C(=O)c2ccccc2)c1 [6-59, N-(3-(2,6-dimethyl-4-(perfluoropropan-2-yl)phenylcarbamoyl)phenyl)-N-(2-oxoethyl)benzamide]
pest or weed control at 100 ppm (Plutella xylostella): ≥ 70% | pest or weed control at 100 ppm (Spodoptera litura [1]): ≥ 70%

Cc1cc(C(F)(C(F)(F)F)C(F)(F)F)cc(C)c1N(CCC(N)=O)C(=O)c1cccc(NC(=O)c2ccccc2)c1 [7-1, N-(3-amino-3-oxopropyl)-3-benzamide-N-(2,6-dimethyl-4-(perfluoropropan-2-yl)phenyl)benzamide]
pest or weed control at 100 ppm (Plutella xylostella): ≥ 70% | pest or weed control at 100 ppm (Spodoptera litura [1]): ≥ 70%

Cc1cc(C(F)(C(F)(F)F)C(F)(F)F)cc(C)c1N(CC(N)=O)C(=O)c1cccc(N(C)C(=O)c2ccccc2)c1F [7-220, N-(2-amino-2-oxoethyl)-N-(2,6-dimethyl-4-(perfluoropropan-2-yl)phenyl)-2-fluoro-3-(N-methylbenzamide)benzamide]
pest or weed control at 100 ppm (Plutella xylostella): ≥ 70% | pest or weed control at 100 ppm (Spodoptera litura [1]): ≥ 70%

COC(=O)CN(C(=O)c1cccc(N(C)C(=O)c2ccccc2)c1F)c1c(C)cc(C(F)(C(F)(F)F)C(F)(F)F)cc1C [7-221, methyl 2-(N-(2,6-dimethyl-4-(perfluoropropan-2-yl)phenyl)-2-fluoro-3-(N-methylbenzamide)benzamide)acetate]
pest or weed control at 100 ppm (Plutella xylostella): ≥ 70% | pest or weed control at 100 ppm (Spodoptera litura [1]): ≥ 70%

Cc1cc(C(F)(C(F)(F)F)C(F)(F)F)cc(C)c1N(CC(=O)O)C(=O)c1cccc(N(C)C(=O)c2ccccc2)c1F [7-222, 2-(N-(2,6-dimethyl-4-(perfluoropropan-2-yl)phenyl)-2-fluoro-3-(N-methylbenzamide)benzamide)acetic acid]
pest or weed control at 100 ppm (Plutella xylostella): ≥ 70% | pest or weed control at 100 ppm (Spodoptera litura [1]): ≥ 70%

COC(=O)CN(C(=O)c1ccccc1)c1cccc(C(=O)N(CC(=O)OC)c2c(C)cc(C(F)(C(F)(F)F)C(F)(F)F)cc2C)c1F [8-12, methyl 2-(N-(3((2,6-dimethyl-4-(perfluoropropan-2-yl)phenyl)(2-methoxy-2-oxoethyl)carbamoyl)-2-fluorophenyl)benzamide)acetate]
pest or weed control at 100 ppm (Plutella xylostella): ≥ 70% | pest or weed control at 100 ppm (Spodoptera litura [1]): ≥ 70%
